Data set [1] has as its system A375 (a human melanoma) cell line. In words: MTT cytotoxicity assay, A375. The data set is classed as cell-based. The note with it: for IC50: read-out: Cytotoxicity (IC50 ± SEM) against A375; for Viability inhibition, A375: concentration not given. The procedure:
(§1) In this study, A375 (a human melanoma), HT29 (a human colon adenocarcinoma), and HFF (a human foreskin fibroblast) cell lines were provided from the Pasteur Institute (Iran). […] 10 mM stock solutions of compounds were prepared in DMSO and diluted in a fresh medium for use. The final concentration of DMSO never exceeded 0.1% (v/v). […] Then the medium was replaced with the respective medium containing ligands or Tl(III) complexes at different concentrations and incubated for 48 h. 10 μL of MTT was added and the medium was removed after 4 h of incubation. Finally, the violet crystal was solubilized in 100 μL DMSO and the absorbance was measured at 570 nm. IC50 value was measured by the standard method. The evaluations were carried out in triplicate[21],[23].
On the technique in general: Formazan colour is commonly taken as a measure of viable cells.

For data set [2], the system named is HT29 (a human colon adenocarcinoma) cell line. Briefly: MTT cytotoxicity assay, HT29. The data set is classed as cell-based. The note with it: read-out: Cytotoxicity (IC50 ± SEM) against HT29. As to the method: as §1
The nature of data set [3]: MTT cytotoxicity assay, HFF. It counts as cell-based, human. The note with it: human. The procedure: as §1
In data set [4] the test system is HFF (a human foreskin fibroblast) cell line. Briefly: MTT cytotoxicity assay, HFF. Particulars: MTT, 48 h; read-out: Cytotoxicity (IC50 ± SEM) against HFF. The data set is classed as cell-based. The procedure:
as §1

Data set [5] in a line: Cyclic voltammetry of the complexes. It counts as physicochemical. Particulars: versus Ag/AgCl, KCl 0.1 M, GCE, scan rate 50 V/s; for formal potential E0': 4 × 10^–3 mol/dm^3 in H2O; for EA (anodic peak potential) / EC (cathodic peak potential): H2O. The text has this: The electrochemical behavior of the complexes and also their ligands was studied by the cyclic voltammograms in the potential range of + 1.5 to –1.5 V and a scan rate of 50 Vs^–1. […] Redox couples at E^0ˊ 0.109, –0.051, and 0.244 V were obtained for C1, C2, and C3, respectively. The electrochemical oxidation of all three complexes seems be a one-stage process which includes irreversible couples with EC = –0.363 V, EA = 0.472 V for C1, EC = –0.271 V, EA = 0.220 V for C2 and EC = –0.337 V, EA = 0.581 V for C3. The peaks can be interpreted according to the Tl(III)/Tl(I) redox system for complexes. […] Therefore, redox couples are related to only the metal centers in complexes[27],[28].
Figure 4 Cyclic voltammogram of complexes c = 4 × 10^–3 mol/dm^3 in H2O medium, KCl (0.1 M) at GCE, scan rate 50 V/s.
Pyridine-2,6-dicarboxylic acid, 4-hydroxy-pyridine-2,6-dicarboxylic acid, 2-aminobenzimidazole, 4-aminopyridine, and thallium(III) nitrate trihydrate were purchased from the commercial sources and were used as received. The solvents were distilled for all synthetic works. Melting points were obtained on an Electrothermal IA-9100 apparatus. The FT-IR spectra were recorded on a Bruker Vector 22 FT-IR spectrometer using KBr pellets. Electronic spectra were recorded on Specord 210, Analytik Jena spectrophotometer in the range of 200–900 nm at room temperature. The ^1HNMR spectra were obtained from Bruker Ultrashield 400 spectrometer. Microanalyses (C, H, N) were measured with a Perkin-Elmer 2004(II) elemental analyzer. Electrochemical experiments were performed using a µAUTOLAB modular electrochemical system (ECO Chemie, Utrecht, the Netherlands) equipped with a PGSTAT type III module driven by GPES software in conjunction with a conventional three-electrode system an Ag/AgCl/3 M KCl and platinum wire as reference and counter electrode respectively and a GC as the working electrode.

In data set [6] the test system is A375 cells. In words: Intracellular ROS (H2DCF-DA, flow cytometry), A375. It counts as cell-based, human. The note with it: A375, IC50 concentrations, 24 h. The procedure: The generation of intracellular ROS was evaluated by reactive oxygen species assay kit. 2 mL of A375 cells (1 × 10^6 cells/mL) were induced with C1–C3 (at IC50 concentrations) at 37 °C for 24 h, serum-free medium washed twice. Then, the cells were incubated in 2 mL of serum-free medium containing H2DCF-DA (2 μM) for 30 min at 37 °C, serum-free medium washed twice. Cells were collected and assayed by flow cytometer with excitation wavelength at 489 nm and emission wavelength at 524 nm, and ten thousand events were collected. The DCF fluorescence peak for this cell sample was evaluated and data were analyzed by FlowJo software. This test was performed as explained on HFF cells treatment to C3 (at the highest concentration)[38].

Data set [7] has as its system A375 cells. Briefly: Cell cycle analysis (PI, flow cytometry), A375. It counts as cell-based, human. The note with it: A375, IC50 concentrations, 24 h; with respect to untreated control cells. As to the method: A375 cells were seeded in 6-well plates with 1.5 × 10^6 cells /well and treated with the C1 and C3 at IC50 concentrations for 24 h. Cells were trypsinized, collected, and fixed in ice-cold 75% ethanol at − 20 °C overnight. After centrifugation, the fixed cells were rinsed with ice-cold phosphate-buffered saline (PBS) and resuspended in 0.5 mL of PBS containing 100 μg/mL DNase-free RNase A (Thermo Fisher Scientific Biosciences GmbH, St. Leon-Rot, Germany), 50 μg/mL propidium iodide (PI; Sigma Aldrich) in the dark for 30 min. The distribution of the cells in different phases of the cell cycle was determined using flow cytometry (Attune Nxt, Thermo Fisher Scientific-US) and FlowJo software v10.6.1 (https://www.flowjo.com/solutions/flowjo/downloads) was used to analyze the data. This test was performed as explained on HFF cells treatment to C3 (at the highest concentration)[62].

For data set [8], the system named is A375 cells. In words: Apoptosis by Annexin-V/PI staining. It counts as cell-based, human. The note with it: A375, IC50 concentrations, 24 h. As to the method:
Annexin V-FITC and PI staining (Annexin V/PI) apoptosis detection kit were used for assessing the percentage of dead cells by apoptosis pathway. Briefly, A375 cells were treated with C1 and C3 at IC50 concentrations. After 24 h of incubation, cells were washed with PBS, trypsinized, centrifuged, and re-suspended in 100 μL binding buffer at a concentration of 1 × 10^6 cells/mL, then added 5 μL of annexin V-FITC conjugate (30 min), and 5 μL of Propidium Iodide (PI) to each cell suspension (20 min) in the dark. The samples were analyzed using a flow cytometer (Attune Nxt, Thermo Fisher Scientific-US), and the results were assessed using the FlowJo software.

For data set [9], the system named is A375 cells. In words: Mitochondrial membrane potential assay (JC-1), A375. It counts as cell-based, human. Particulars: A375, IC50 concentrations, JC-1, 24 h. The procedure: Mitochondrial membrane potential analysis was determined by fluorescent dye JC-1 staining according to the manufacturer's protocol for the JC-1 assay kit. In brief, 2 mL of A375 cells (1 × 10^5 cells/mL) were treated with IC50 concentrations of C1 and C3 in 6-well plates for […]. Cells were harvested and washed three times with PBS after 24 h of incubation. Then cells were stained with 1 mL of JC-1 stock solution (10 mg/mL). Assays were initiated by incubating A375 cells with JC-1 for 30 min at 37 °C in the dark and detected with a fluorescence microscope. This test was performed as explained on HFF cells treatment to C3 (at the highest concentration).

Data set [10] relates to p53. In words: Western blot, p53 in A375 cells. The data set is classed as cell-based, human. The note with it: A375, IC50 concentrations, 24 h. The procedure:
(§2) After incubation with C1 and C3 at IC50 concentrations for 24 h, A375 cells were harvested and lysed in 150 μL of lysis buffer (149 μL RIPA and 1 μL PMSF), and then placed on ice for 15 min. Total proteins were extracted by centrifuging the cell sample at 10,000 rpm and 4 °C for 10 min. Then about 50 μg of purified proteins were mixed with an equal volume of electrophoresis sample buffer, and the mixture was heated for 10 min. Meanwhile, the equal protein content from the control cells was prepared in the same way. The cell sample (10 μL) was loaded onto 10% SDS-PAGE gels and then transferred onto a microporous polyvinylidene difluoride (PVDF) membrane. The membrane was blocked with 5% BSA in TBST buffer for more than 2 h. After the removal of TBST buffer, membranes were incubated with an appropriate dilution of specific primary antibodies in TBST overnight at 4 °C and then washed with TBST three times. The membranes were incubated with secondary antibodies for 1 h and washed with TBST. The immunoreactive signals were detected using an enhanced chemo-luminance kit (Pierce ECL Western Blotting Substrate) following the procedures given in the user manual[46],[63].
Background: In western blotting, separated proteins are transferred to a membrane and probed.

Data set [11] relates to Bax/Bcl-2. In words: Western blot, Bax/Bcl-2 ratio in A375 cells. The note with it: A375, IC50 concentrations, 24 h. The data set is classed as cell-based, human. As to the method: as §2
Data set [12] relates to procaspase-9. Briefly: Western blot, procaspase-9 in A375 cells. The note with it: A375, IC50 concentrations, 24 h, densitometry. The data set is classed as cell-based, human. As to the method:
as §2

Setting [13] is: MTT, 48 h, read-out: Cytotoxicity (IC50 ± SEM) against HFF.

Like-named read-outs stand apart in the source and are kept apart here.

For the compound `Nc1ccncc1` [4-apy, 4-aminopyridine], the IC50 is 491.9 ± 1.56 µM in [1] (Homo sapiens, A-375, MTT, 48 h); over 500 µM in data set [2] (Homo sapiens, HT-29, MTT, 48 h); over 500 µM in data set [3] (setting [13]).

Take (2-abH)[Tl(hpydc)2(H2O)2]∙6H2O [C2]: in data set [1] (MTT, 48 h), the “Viability inhibition, A375” value amounted to 35.28% and the 50% inhibitory concentration (IC50) came out at 421.1 ± 0.55 µM. Moreover, the IC50 in data set [2] (MTT, 48 h) is 486.2 ± 0.69 µM. Besides, the IC50 in data set [4] was over 500 µM. Besides, in data set [5], the “formal potential E0'” value is “–0.051 V”, the “EA (anodic peak potential)” value amounted to 0.220 V and the “EC (cathodic peak potential)” value is “–0.271 V”. The “ROS level (DCF oxidation), more effective than vehicle control-treated” value in data set [6] was 23.5%.

Consider `Nc1nc2ccccc2[nH]1` [2-ab, 2-aminobenzimidazole], for which the IC50 was over 500 µM in data set [1] (Homo sapiens, A-375, 48 h) and over 500 µM in data set [2] (Homo sapiens, HT-29, 48 h). For the same compound, the IC50 at 48 h in [3] was over 500 µM.

On to `O=C1[O][Pt]2([NH][C@@H]3CCCC[C@H]3[NH]2)[O]C1=O` [Oxaliplatin, reference compound], for which the IC50 in data set [1] (MTT, 48 h) worked out at 331 ± 2.69 µM; in data set [2] (MTT, 48 h) it was 323.1 ± 2.87 µM; in [4], 429.2 ± 2.32 µM.

For the compound `O=C(O)c1cc(O)cc(C(=O)O)n1` [hpydcH2, 4-hydroxy-pyridine-2,6-dicarboxylic acid], the IC50 in data set [1] (Homo sapiens, A-375, MTT, 48 h) is over 500 µM; in data set [2] (Homo sapiens, HT-29, MTT, 48 h), over 500 µM; in data set [3] (setting [13]), over 500 µM.

As for (2-abH)2[Tl(pydc)2(H2O)2]2∙11H2O [C1], in data set [1] (MTT, 48 h), the “Viability inhibition, A375” value was found to be 55.44% and the IC50 came to 81.5 ± 1.02 µM. In addition, in data set [2] (MTT, 48 h), the IC50 was found to be 354.4 ± 0.71 µM. Further, in [4], the 50% inhibitory concentration (IC50) is over 500 µM. In addition, in data set [5], the “formal potential E0'” value amounted to 0.109 V, the “EA (anodic peak potential)” value was 0.472 V and the “EC (cathodic peak potential)” value is given as “–0.363 V”. The “ROS level (DCF oxidation), more effective than vehicle control-treated” value in data set [6] turned out to be 189.9%. Further, the “rise in the cellular population of the G2-M phase” value in data set [7] is given as 16.91%. Moreover, in data set [8], the “apoptosis, more effective than vehicle control-treated” value came to 62.24%; the “early apoptosis (annexin V+/PI-, Q3)” value was determined as 14.22%; the “late apoptosis (annexin V+/PI+, Q2)” value was determined as 48.01%. In addition, the “mitochondrial membrane potential (MMP) in A375 cells” value in [9] was “MMP reduction”. Also, the “level of p53” value in data set [10] was “significantly enhanced”. Also, the “ratio of Bax/Bcl-2” value in data set [11] is on record as 3.60 fold. The “procaspase-9 level compared to control” value in data set [12] stood at 64.12%.

As to `O=C(O)c1cccc(C(=O)O)n1` [pydcH2, 2,6-Pyridinedicarboxylic acid], the IC50 in [1] (Homo sapiens, A-375, 48 h) was 442.6 ± 1.22 µM; in data set [2] (Homo sapiens, HT-29, 48 h), 430.2 ± 2.09 µM. In data set [3] (setting [13]), the IC50 at 48 h is over 500 µM.

What is called IC50 is the concentration that inhibits the measured activity by half.

For the origin of these results see publication PMC8333620, “Novel Tl(III) complexes containing pyridine-2,6-dicarboxylate derivatives with selective anticancer activity through inducing mitochondria-mediated apoptosis in A375 cells” (Scientific Reports, 2021).
